Data as given in PMC4284807, “Activation of RidA chaperone function by N-chlorination” (Nature Communications, 2014).

Experiments:
IlvA = target: T1, IlvA (Escherichia coli, UniProt P04968); experiment: alpha-ketobutyrate formation at […] nm; type: biochemical; details: 10 mM threonine, 0.9 μM IlvA, MES/HEPES/TAPS pH 7.5, 20 °C; accelerated by untreated RidA
T1 sequence (P04968 1-514): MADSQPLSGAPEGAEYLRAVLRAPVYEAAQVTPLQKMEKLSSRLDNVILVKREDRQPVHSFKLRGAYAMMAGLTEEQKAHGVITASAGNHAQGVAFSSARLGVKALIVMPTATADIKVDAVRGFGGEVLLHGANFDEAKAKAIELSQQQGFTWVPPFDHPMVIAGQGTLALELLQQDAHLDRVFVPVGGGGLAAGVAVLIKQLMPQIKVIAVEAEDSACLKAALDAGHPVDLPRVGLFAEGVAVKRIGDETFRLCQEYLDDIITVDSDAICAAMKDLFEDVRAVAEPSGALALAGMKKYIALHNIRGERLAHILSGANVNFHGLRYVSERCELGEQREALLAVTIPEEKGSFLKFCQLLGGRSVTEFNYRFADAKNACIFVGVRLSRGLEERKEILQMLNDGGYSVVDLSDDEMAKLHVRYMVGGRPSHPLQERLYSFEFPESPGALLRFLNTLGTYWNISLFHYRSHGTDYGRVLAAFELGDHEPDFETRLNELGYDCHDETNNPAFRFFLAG

RidA (untreated) = target: T2, RidA (untreated) (Escherichia coli, UniProt P0AF93); experiment: fluorescence titration of dye with protein; type: binding; details: protein varied 1-200 μM, 0.2 μM dye, 40 mM HEPES-KOH pH 7.4, emission 613 nm, hydrophobicity probe
T2 construct: full-length recombinant RidA, 13,480 Da (fits loss of initiator Met), trimer; untreated
T2 sequence (P0AF93 2-128): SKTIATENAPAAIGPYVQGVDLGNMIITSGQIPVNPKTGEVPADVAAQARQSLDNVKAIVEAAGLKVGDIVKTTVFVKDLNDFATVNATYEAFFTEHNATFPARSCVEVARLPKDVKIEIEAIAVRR

[1] = target: the molecule itself; experiment: SEC; analytical gel filtration, Superdex 75 10/300 GL, flow rate 0.5 ml min^-1; untreated RidA or RidA treated with a 10-fold excess of HOCl for 5 min at 37 °C (HOCl removed)

C[C@@H](O)[C@H](N)C(=O)O [threonine]
alpha-ketobutyrate formation at 230 nm (IlvA): α-ketobutyrate generation from threonine catalysed by threonine deaminase IlvA

CCN(CC)c1ccc2nc3c4ccccc4c(=O)cc-3oc2c1 [Nile red]
Kd (RidA (untreated)): 121 µM

B1: E. coli RidA, untreated (natural protein, UniProt P0AF93 1-128, looked up)
chain: MSKTIATENAPAAIGPYVQGVDLGNMIITSGQIPVNPKTGEVPADVAAQARQSLDNVKAIVEAAGLKVGDIVKTTVFVKDLNDFATVNATYEAFFTEHNATFPARSCVEVARLPKDVKIEIEAIAVRR
notes: RidA of Escherichia coli, member of the YjgF/YER057c/UK114 family; mass of the unmodified full-length protein printed as 13,480 Da; The printed mass of 13,480 Da may mean that the first methionine is missing (surmise); also called RidA-UT; untreated RidA
stoichiometry N [1]: 3

B2: HOCl-treated RidA (RidA_(HOCl)) (natural protein, E. coli, UniProt P0AF93 1-128, looked up)
chain: MSKTIATENAPAAIGPYVQGVDLGNMIITSGQIPVNPKTGEVPADVAAQARQSLDNVKAIVEAAGLKVGDIVKTTVFVKDLNDFATVNATYEAFFTEHNATFPARSCVEVARLPKDVKIEIEAIAVRR
modifications: N-chlorinated: up to seven chlorine atoms added (positions not mapped); up to five oxygen atoms added to methionine and cysteine residues
notes: RidA of Escherichia coli, treated with HOCl; The chlorinated residues are not identified; the authors suspect lysine, arginine and the N-terminus; also called N-chlorinated RidA; source: HOCl removed with Micro Bio-Spin columns
binding result [1]: binds
